In patent publication US20250228901A1, “COMPOSITION FOR PREVENTING, ALLEVIATING OR TREATING INFLAMMATORY SKIN DISEASES, COMPRISING CUTIBACTERIUM SP. STRAIN” (CJ Bioscience, Inc., priority 2021, published 2025):

Tests used:
[1] = test system: mice in which rosacea is induced; assay: Rosacea animal model induced by LL37 peptide; type: in vivo, BALB/c mice; details: for Dermal inflammation (histopathological evaluation score) / Epithelial hyperplasia (histopathological evaluation score): H&E staining of LL37-administered skin, culture products 150 μl i.p. x3, doxycycline 1 mg/kg x3, LL37 = rosacea induction only; for Total (histopathological evaluation score): sum of epithelial hyperplasia and dermal inflammation scores
Experimental: For the present animal effectiveness test, 32 5-week-old female BALB/c mice were purchased from Orient Bio company, and brought into a breeding room with a 12-hour artificial photoperiod, and acclimatized for one week, and then used in the experiment.
To make a rosacea animal model, hair on the mice's back area was removed using a depilator and hair removal cream. In 24 hours after depilation, to induce rosacea lesions, LL37 peptide (Peptron, Co., Ltd) of 320 μM was under intradermal injection using an insulin syringe by 50 μl. […] Doxycycline, which is one of conventional rosacea therapies, was peritoneally administered by 1 mg/kg once a day, for 3 days (total 3 times).
After 24 hours of the last strain culture product administration, the size (area) of erythema was measured using a caliper, and the animals were euthanized using CO2 gas, and then the lesion area was taken as a photograph and the degree of the erythema was observed by naked eyes and the tissue photographs and the area of the inflammation area were shown in FIG. 14a and FIG. 14b as graphs.

[2] = test system: Raw264.7 macrophages; assay: Inflammation regulation by living cells co-cultured with Raw264.7 macrophages, IL-6 and IL-10 ELISA; type: cell-based; details: living cells co-cultured 1:1 with macrophages, 24 hours; compared to the B. fragilis strain
Experimental: The secured living cells and immunocytes (Raw264.7 macrophages) were co-cultured at the same ratio (1:1) of 5×10^4/well, respectively, in a 96 well plate for 24 hours, and then the inflammation regulation efficacy of the strains was confirmed. As a control group, a B. fragilis strain known as an inflammation alleviating strain was used. The secreted amounts of the inflammatory cytokine (IL-6) and anti-inflammatory cytokine (IL-10) secreted from the macrophages were measured by ELISA, and then values thereof were calculated at a ratio of IL-10/IL-6 and they were shown in FIG. 11.

Molecule: LL37
- Dermal inflammation (histopathological evaluation score) [1]: 2.5
- Epithelial hyperplasia (histopathological evaluation score) [1]: 2.75
- Total (histopathological evaluation score) [1]: 5.25

Molecule: Cutibacterium acnes CJRS-10656
- secreted amount of the anti-inflammatory cytokine (IL-10) [2]: promoted
- secreted amount of the inflammatory cytokine (IL-6) [2]: reduced

Molecule: Cutibacterium acnes CJRS-10655
- secreted amount of the anti-inflammatory cytokine (IL-10) [2]: promoted
- secreted amount of the inflammatory cytokine (IL-6) [2]: reduced

Molecule: Cutibacterium acnes CJRS-10653
- secreted amount of the anti-inflammatory cytokine (IL-10) [2]: promoted
- secreted amount of the inflammatory cytokine (IL-6) [2]: reduced

Molecule: Cutibacterium acnes CJRS-10654
- secreted amount of the anti-inflammatory cytokine (IL-10) [2]: promoted
- secreted amount of the inflammatory cytokine (IL-6) [2]: reduced

Molecule: C[C@H]1c2cccc(O)c2C(=O)C2=C(O)[C@]3(O)C(=O)C(C(N)=O)=C(O)[C@@H](N(C)C)[C@@H]3[C@@H](O)[C@@H]21 [doxycycline]
- Dermal inflammation (histopathological evaluation score) [1]: 2.4
- Epithelial hyperplasia (histopathological evaluation score) [1]: 1.2
- Total (histopathological evaluation score) [1]: 3.6

Molecule: Cutibacterium acnes CJRS-10652
- secreted amount of the anti-inflammatory cytokine (IL-10) [2]: promoted
- secreted amount of the inflammatory cytokine (IL-6) [2]: reduced

Molecule: Cutibacterium acnes CJRS-10651
- secreted amount of the anti-inflammatory cytokine (IL-10) [2]: promoted
- secreted amount of the inflammatory cytokine (IL-6) [2]: reduced
